The data set can be described thus: Human HepG2 cell viability assay in 384 well format. The class given is toxicity, cell-based. More on the design: dose 125 nL, time 70.5 hour; cytotoxicity at 70.5 h: concentration not given beside the values. The settings on record: HepG2 cells, read-out: Inhibition.

Regarding `CCc1noc(C2CCCCN2C(=O)c2ccccc2)n1` (configuration not stated), the cytotoxicity at 70.5 h was -1.29%. Consider `COc1ccc2c(c1)OCC(CNC(=O)NC(C)(C)C)C2` (configuration not stated), for which the cytotoxicity at 70.5 h was -0.00962%. As to `COc1cc(Cl)cc(CN2CCCC(N3CCCC3)C2)c1OC` (configuration not stated), the cytotoxicity at 70.5 h is -14.7%. With `O=C(Cc1ccsc1)N1CCC(c2ccncc2)CC1`, the cytotoxicity at 70.5 h was -13.6%. For the compound `CN(C)CCO[C@H]1C[C@@H](O)C12CCN(c1cnccn1)CC2`, the cytotoxicity at 70.5 h was -6.05%. Next, `CSc1ncc(CNC(C)c2cnn(-c3ccccc3)c2C)cn1` (configuration not stated): -2.21%; `CC(C)[C@@H]1CN(CCOc2ccccc2)C[C@H]1NS(=O)(=O)N(C)C`: -5.28%; `CN(C)C(=O)N1CCN(CCCOc2ccccc2)[C@H]2CS(=O)(=O)C[C@H]21`: -5.64%.

In the case of `CCNc1ncc(C(=O)NCC2OCCc3ccccc32)cn1` (configuration not stated), the cytotoxicity at 70.5 h is -3.21%. The same measure for `O=C1Nc2ccccc2NC12CCN(c1cccc(C(F)(F)F)n1)CC2`: 52.4%; for `CCc1cnc(NCc2ccccc2Cn2cccn2)nc1`: 0.071%. As for `CSCCCN1C[C@H](NC(=O)c2ccc(CO)cc2)[C@@H](C2CC2)C1`, the cytotoxicity at 70.5 h is -9.41%. Take `CSCC(=O)N1CCc2c(cnc(C)c2-c2noc(-c3cscn3)n2)C1`: the cytotoxicity at 70.5 h was -15.6%.

As for `COc1ccc(-c2cc(CNc3ncnc4c3CCNCC4)no2)cc1`, the cytotoxicity at 70.5 h was found to be 23.4%. Regarding `c1nc(NCc2cc3n(n2)CCN(C2CCCCC2)C3)c2nc[nH]c2n1`, the cytotoxicity at 70.5 h was -11.7%. Turning to `Cn1cc(C(=O)N2CCCCC2CCc2ccc(O)cc2)cn1` (configuration not stated), the cytotoxicity at 70.5 h is -10.3%. On to `COCCCn1cnnc1CNc1cc(C)nc2ccnn12`, for which the cytotoxicity at 70.5 h was -4.02%. As to `CC(C)CCN(C)Cc1ccccc1-c1nc(C(C)C)cc(=O)[nH]1`, the cytotoxicity at 70.5 h worked out at 0.496%. As to `CSCC(=O)N1C[C@H]2CC[C@@H]1CN(C1Cc3ccccc3C1)C2`, the cytotoxicity at 70.5 h is -9.76%. Turning to `COC[C@]1(O)CCN(Cc2ccc(N(C)C)nc2)CC1(C)C`, the cytotoxicity at 70.5 h is -17.9%.

In the case of `CN1CCC(N(Cc2ccncc2)C(=O)COCC2CCCCO2)CC1` (configuration not stated), the cytotoxicity at 70.5 h was -1.65%.

`Cc1ccccc1CN1C[C@@H]2CC[C@H](C1)N(CC1CCC1)C2=O`: the cytotoxicity at 70.5 h was -4.63%. In the case of `CCC(=O)N1CCCC1C(=O)N1CCC(Cc2ccc(F)cc2)CC1` (configuration not stated), the cytotoxicity at 70.5 h was -9.21%.

Turning to `CS(=O)(=O)NCCC(=O)N1CCC(Cc2ccc(CO)cc2)C1` (configuration not stated), the cytotoxicity at 70.5 h is 1.14%. The same measure for `O=C(N[C@@H]1CCN(c2nccc3ccccc23)C[C@H]1O)c1cnccn1`: 9.52%; for `CC(C)(CO)Nc1ccc(-c2nc(-c3ccccc3F)no2)cn1`: -5.95%. Consider `COCC[C@]1(O)CCN(S(=O)(=O)c2ccc(C)cc2OC)C[C@H]1C`, for which the cytotoxicity at 70.5 h was -4.64%.

In the case of `COc1ccc(OC)c2c(C)cc(N(C)Cc3cc(C)on3)nc12`, the cytotoxicity at 70.5 h came to 23.1%.

`CC(C)Cn1cncc1CNC(=O)c1cccc(CC2CCNCC2)c1`: the cytotoxicity at 70.5 h was 8.07%. As to `Cc1ncc(CNC2CC(=O)N(CCc3ccc(F)cc3)C2)n1C` (configuration not stated), the cytotoxicity at 70.5 h was -10.7%.

As for `Cc1nnsc1C(=O)NCc1cccnc1N1CCc2ccccc2C1`, the cytotoxicity at 70.5 h is 16.7%.

Consider `CCN1CCCC(c2c(-c3ccccc3)ncn2CC(N)=O)C1` (configuration not stated), for which the cytotoxicity at 70.5 h is -0.352%.

In the case of `CCCc1cc(NC2CCN(Cc3ccccn3)CC2)n2nccc2n1`, the cytotoxicity at 70.5 h was -4.87%. With `C[C@@H]1CN(C2(C(=O)N3CCNCC3)Cc3ccccc3C2)C[C@H](C)O1`, the cytotoxicity at 70.5 h is -2.17%.

For `CC(C)c1noc(-c2ccc(NCC3CCCOC3)nc2)n1` (configuration not stated), the cytotoxicity at 70.5 h is -12.4%.

Turning to `COc1ccc(CC2CN(C3CCSCC3)CCO2)cc1` (configuration not stated), the cytotoxicity at 70.5 h is 1.2%. Take `NC(=O)NCC(=O)N1CCCC(c2nccn2CC2CCC2)C1` (configuration not stated): the cytotoxicity at 70.5 h was -1.33%. As to `CCc1[nH]c2c(CNC(=O)[C@@H]3CCCN3C)cc(C)cc2c1C`, the cytotoxicity at 70.5 h worked out at 6.71%. For the compound `O=C1O[C@@H]2CN(c3cnccn3)C[C@@H]2N1CCCc1ccc(F)cc1`, the cytotoxicity at 70.5 h is -7.8%. As to `O=C(NCCCc1nnc2ccccn12)c1ccccc1C1CCNC1` (configuration not stated), the cytotoxicity at 70.5 h was -0.698%.

As for `CCc1nc(CN(CCc2ccccc2)C2CCN(C)CC2)no1`, the cytotoxicity at 70.5 h is -9.81%. `CNc1nc(N2CCC3(CCCNC3=O)C2)nc2c1CCC2` (configuration not stated): the cytotoxicity at 70.5 h is -6.8%.

Regarding `CN(C)c1ccc(CC(=O)N2CCOCC(O)C2)cc1` (configuration not stated), the cytotoxicity at 70.5 h was determined as 22.5%. With `COc1cccc(OC)c1CN1CC(=O)N(c2ccc(C)cc2)CC1C` (configuration not stated), the cytotoxicity at 70.5 h was determined as 1.44%. As for `CN1C(=O)CC(C(=O)O)C12CCN(Cc1ccc(Cl)c(F)c1)CC2` (configuration not stated), the cytotoxicity at 70.5 h came to 9.92%.

With `O=C(C1CCC1)N1CCN(Cc2ccccc2F)[C@H]2CS(=O)(=O)C[C@H]21`, the cytotoxicity at 70.5 h is -4.65%. Take `O=C(c1ccc[nH]1)N1CCc2c(cccc2S(=O)(=O)N2CCOCC2)C1`: the cytotoxicity at 70.5 h turned out to be 29.8%. Next, `COc1ncc(CN2CCC3(CCNC(=O)CC3)CC2)cn1`: 4.98%. Next, `CCCN(CC)Cc1ccc(C(=O)NCC2COCCO2)c(=O)[nH]1` (configuration not stated): -6.16%; `CN(Cc1ccncc1)Cc1cnn(-c2ccc(F)cc2)c1`: -13.3%. Turning to `CCCS(=O)(=O)N1C[C@@H]2CC[C@H](C1)N(Cc1cscn1)C2=O`, the cytotoxicity at 70.5 h was -9.73%. Next, `COc1cccc(OCCCc2cc(C#N)ccn2)c1`: 11%. With `O=C(NCCc1nc(-c2ccccn2)no1)c1ccc(C2CCCO2)s1` (configuration not stated), the cytotoxicity at 70.5 h is -5.15%.

In the case of `Cc1nc(CCNC(=O)C2CC(=O)N(C(C)(C)C)C2)sc1Cl` (configuration not stated), the cytotoxicity at 70.5 h came out at 4.69%. As to `CCOCc1nc2c(c(N(C)Cc3snnc3C)n1)CCNCC2`, the cytotoxicity at 70.5 h is -9.47%. The same measure for `COCCn1ccnc1CN(Cc1ccccn1)Cc1sccc1C`: -7.84%. Next, `COc1ccc(F)c(-c2cc(C(=O)NC3CC3)ccn2)c1`: -14.2%. Next, `O=C(NCc1cccc(C(F)(F)F)c1)C(c1cccnc1)N1CCCC1` (configuration not stated): -4.98%; `CC(c1cccc(-c2ncc(C#N)c(N)n2)c1)N(C)C` (configuration not stated): -12.5%. Regarding `CN(C)CCNc1cc(-c2ccccc2C(N)=O)c2cc[nH]c2n1`, the cytotoxicity at 70.5 h is -8.6%. Take `O=C(Cn1ccnc1)N(CCO)CCSc1ccc(Cl)cc1`: the cytotoxicity at 70.5 h is -8.84%. In the case of `COc1ccc(C(=O)C2CCCN(c3cc(OC)ncn3)C2)c(C)c1` (configuration not stated), the cytotoxicity at 70.5 h is 10.1%.

On to `Nc1nc2c(c(NC(Cn3cccn3)c3ccccc3)n1)CCNCC2` (configuration not stated), for which the cytotoxicity at 70.5 h amounted to 0.802%. For the compound `O=S(=O)(c1cccnc1)N1C[C@@H]2CC[C@H](C1)N(Cc1ccccn1)C2`, the cytotoxicity at 70.5 h is -5.11%. `Cc1nc(N2CCCCC2)ncc1-c1cc(=O)[nH]c(N2CCCC2)n1`: the cytotoxicity at 70.5 h was determined as 2.6%. With `CCC(NC(=O)C1CCN(S(C)(=O)=O)CC1)c1ccc(C)cc1` (configuration not stated), the cytotoxicity at 70.5 h is -3.68%. Regarding `CCN(c1ccc(C(=O)N2CCCCCC2)cc1)S(=O)(=O)CC`, the cytotoxicity at 70.5 h is -2.32%. Turning to `CN(c1ccc(C(=O)NCCN2CCOCC2)c(Cl)c1)S(C)(=O)=O`, the cytotoxicity at 70.5 h was -1.41%. Regarding `CC(C)Cc1cc(C(=O)NCC(O)c2ccc(F)cc2)n(C)n1` (configuration not stated), the cytotoxicity at 70.5 h was -16.2%. Next, `CN1CCC(Oc2ccc(NC(=O)c3ccccc3)cc2)CC1`: -9.56%; `Cc1cc(Cc2ccc(S(=O)(=O)N3CCSCC3)cc2)c(=O)[nH]n1`: 1.5%; `O=C(c1ncccc1O)N1CCN(Cc2ccco2)C(CCO)C1` (configuration not stated): -11.1%.

`CC(C)[C@@H]1CN(Cc2ccccc2C#N)C[C@H]1N(C)C`: the cytotoxicity at 70.5 h stood at 31.1%. As for `Cc1cccc(NCc2nn(C)c(=O)[nH]2)c1`, the cytotoxicity at 70.5 h was -11%. For the compound `CCC(C(=O)NCc1ccccn1)N(c1cccc(C)c1)S(C)(=O)=O` (configuration not stated), the cytotoxicity at 70.5 h was -1.44%. Consider `CCCN1CCCn2nc(CNC(=O)CC(C)n3ccnc3C)cc2C1` (configuration not stated), for which the cytotoxicity at 70.5 h stood at 9.04%. Take `CCN(c1ccc(C(=O)N2CCC(C(N)=O)CC2)cc1)S(=O)(=O)CC`: the cytotoxicity at 70.5 h was 15.4%. Regarding `CCCOCC1CCN(C(=O)c2cnc(-c3csc(C)n3)nc2O)C1` (configuration not stated), the cytotoxicity at 70.5 h is -8.59%. In the case of `Cc1ccc(-c2noc(CC[C@@H]3CCCN4CCCC[C@H]34)n2)nn1`, the cytotoxicity at 70.5 h was -3.37%. Take `COc1ccc(N2Cc3n[nH]c(=O)n3C2=O)cc1`: the cytotoxicity at 70.5 h is -3.14%. `CN(c1ccc(Cl)c(C(=O)NCCCN2CCOCC2)c1)S(C)(=O)=O`: the cytotoxicity at 70.5 h came to 3.59%. Consider `CC(C)c1cc(-c2nn3c(C(C)C)nnc3s2)[nH]n1`, for which the cytotoxicity at 70.5 h was -11.4%. Next, `CC(=O)Cn1c(C)cc(=O)c2cc(F)ccc21`: 1.19%. Take `Cc1nc(N2CCCN(c3ncccn3)CC2)c2cnn(C)c2n1`: the cytotoxicity at 70.5 h was -3.77%.

In the case of `C/C=C(\C)CN1C[C@H](NC(=O)CN2CCCC2=O)[C@@H](c2ccc(C)o2)C1`, the cytotoxicity at 70.5 h was determined as 9.35%. Turning to `Cc1nc2c(c(=O)n1C)CCN(Cc1cc3ccccc3[nH]1)CC2`, the cytotoxicity at 70.5 h came out at 0.793%. Take `CCc1nc(NC2CCN(CC(=O)NC3CC3)CC2)c2cnn(C)c2n1`: the cytotoxicity at 70.5 h came to 14.5%. Regarding `Cc1cc(C(=O)NCCC2CCN(C)CC2)ccc1N(C)S(C)(=O)=O`, the cytotoxicity at 70.5 h was -10.7%. The same measure for `CCN1CCC(CC(=O)N2CCc3sc(C(=O)N(C)C)cc3C2)CC1`: 20.6%. The same measure for `OC1(c2cn(C3CCN(C4CCSC4)CC3)nn2)CCCC1` (configuration not stated): -4.72%; for `CC(NC(=O)CN(C)S(C)(=O)=O)c1ccc(F)cc1` (configuration not stated): -11.2%. For `COCc1noc(-c2ccc(N(C)Cc3c(C)n[nH]c3C)nc2)n1`, the cytotoxicity at 70.5 h was -5.36%. Next, `CCOc1ccc(CC(=O)N2CCCC2c2cc(C)on2)cc1` (configuration not stated): -3.15%; `CCNc1ncc(C(=O)NC2CCSC2)cn1` (configuration not stated): 8.53%. Next, `O=C1CC(c2ccsc2)c2snc(C(=O)O)c2N1` (configuration not stated): 8.48%. In the case of `Cc1ccc(F)cc1NC(=O)C1CCCN1C(=O)C(C)C` (configuration not stated), the cytotoxicity at 70.5 h is -5.39%.

As to `Cc1cccnc1N1CCN(C(=O)CCc2cn3ccccc3n2)CC1`, the cytotoxicity at 70.5 h is 15.3%.

Values taken from ChEMBL document CHEMBL3507680, “University of Dundee, Gates Library screen for HepG2 cell viability”.
